Laboratory results published in US7772241B2, “Variolin derivatives and their use as antitumor agents” (Pharma Mar S.A., priority 2001, dated 2010).

Tests used:
A-549 = experiment: Inhibition of cells growth by colorimetric (SRB) assay, A-549; conditions: for GI50 / CC50: Homo sapiens, A549, 48 h; for GI50: read-out: GI50 A-549, SRB assay, 48 hours exposure; for CC50: read-out: LC50 A-549, SRB assay, 48 hours exposure; for TGI A-549: SRB assay, 48 hours exposure
Description: (§1) The finality of these assays is to interrupt the growth of a “in vitro” tumor cell culture by means a continued exhibition of the cells to the sample to be testing.
(§2) This form of the assay employs 96 well cell culture microplates of 9 mm diameter (Faircloth, 1988; Mosmann, 1983). Most of the cell lines are obtained from American Type Culture Collection (ATCC) derived from different human cancer types.
(§3) Cells are maintained in RPMI 1640 10% FBS, supplemented with 0.1 g/l penicillin and 0.1 g/l streptomycin sulphate and then incubated at 37° C., 5% CO2 and 98% humidity. For the experiments, cells were harvested from subconfluent cultures using trypsin and resuspended in fresh medium before plating.
(§4) Cells are seeded in 96 well microtiter plates, at 5×10^3 cells per well in aliquots of 195 μl medium, and they are allowed to attach to the plate surface by growing in drug free medium for 18 hours. Afterward, samples are added in aliquots of 5 μl in a ranging from 10 to 10^−8 μg/ml, dissolved in DMSO/EtOH/PBS (0.5:0.5:99). After 48 hours exposure, the antitumor effect are measured by the SRB methodology: cells are fixed by adding 50 μl of cold 50% (wt/vol) trichloroacetic acid (TCA) and incubating for 60 minutes at 4° C. Plates are washed with deionized water and dried. One hundred μl of SRB solution (0.4% wt/vol in 1% acetic acid) is added to each microtiter well and incubated for 10 minutes at room temperature. Unbound SRB is removed by washing with 1% acetic acid. Plates are air dried and bound stain is solubilized with Tris buffer. Optical densities are read on a automated spectrophotometric plate reader at a single wavelength of 490 nm.
(§5) The values for mean +/−SD of data from triplicate wells are calculated. Some parameters for cellular responses can be calculated: GI=growth inhibition, TGI=total growth inhibition (cytostatic effect) and LC=cell killing (cytotoxic effect).

HT-29 = experiment: Inhibition of cells growth by colorimetric (SRB) assay, HT-29; conditions: for GI50 / CC50: Homo sapiens, HT-29, 48 h; for GI50: read-out: GI50 HT-29, SRB assay, 48 hours exposure; for CC50: read-out: LC50 HT-29, SRB assay, 48 hours exposure; for TGI HT-29: SRB assay, 48 hours exposure
Description: as §1, §2, §3, §4, §5

IGROV-1 = experiment: Inhibition of cells growth by colorimetric (SRB) assay, IGROV-1; conditions: for GI50 / CC50: Homo sapiens, IGROV-1, 48 h; for GI50: read-out: GI50 IGROV, SRB assay, 48 hours exposure; for CC50: read-out: LC50 IGROV, SRB assay, 48 hours exposure; for TGI IGROV: SRB assay, 48 hours exposure
Description: as §1, §2, §3, §4, §5

LoVo-Dox = experiment: Inhibition of cells growth by colorimetric (SRB) assay, LoVo-Dox; conditions: for GI50 / CC50: Homo sapiens, 48 h; for GI50: read-out: GI50 LOVO-DOX, SRB assay, 48 hours exposure; for CC50: read-out: LC50 LOVO-DOX, SRB assay, 48 hours exposure; for TGI LOVO-DOX: SRB assay, 48 hours exposure
Description: as §1, §2, §3, §4, §5

LNCaP = experiment: Inhibition of cells growth by colorimetric (SRB) assay, LNCaP; conditions: for GI50 / CC50: Homo sapiens, LNCaP, 48 h; for GI50: read-out: GI50 LN-caP, SRB assay, 48 hours exposure; for CC50: read-out: LC50 LN-caP, SRB assay, 48 hours exposure; for TGI LN-caP: SRB assay, 48 hours exposure
Description: as §1, §2, §3, §4, §5

LoVo = experiment: Inhibition of cells growth by colorimetric (SRB) assay, LoVo; conditions: for GI50 / CC50: Homo sapiens, LoVo, 48 h; for GI50: read-out: GI50 LOVO, SRB assay, 48 hours exposure; for CC50: read-out: LC50 LOVO, SRB assay, 48 hours exposure; for TGI LOVO: SRB assay, 48 hours exposure
Description: as §1, §2, §3, §4, §5

DU-145 = experiment: Inhibition of cells growth by colorimetric (SRB) assay, DU-145; conditions: for GI50 / CC50: Homo sapiens, DU-145, 48 h; for GI50: read-out: GI50 DU-145, SRB assay, 48 hours exposure; for CC50: read-out: LC50 DU-145, SRB assay, 48 hours exposure; for TGI DU-145: SRB assay, 48 hours exposure
Description: as §1, §2, §3, §4, §5

IGROV-ET = experiment: Inhibition of cells growth by colorimetric (SRB) assay, IGROV-ET; conditions: for GI50 / CC50: Homo sapiens, 48 h; for GI50: read-out: GI50 IGROV-ET, SRB assay, 48 hours exposure; for CC50: read-out: LC50 IGROV-ET, SRB assay, 48 hours exposure; for TGI IGROV-ET: SRB assay, 48 hours exposure
Description: as §1, §2, §3, §4, §5

K-562 = experiment: Inhibition of cells growth by colorimetric (SRB) assay, K-562; conditions: for GI50 / CC50: Homo sapiens, K562, 48 h; for GI50: read-out: GI50 K-562, SRB assay, 48 hours exposure; for CC50: read-out: LC50 K-562, SRB assay, 48 hours exposure; for TGI K-562: SRB assay, 48 hours exposure
Description: as §1, §2, §3, §4, §5

SK-OV-3 = experiment: Inhibition of cells growth by colorimetric (SRB) assay, SK-OV-3; conditions: for GI50 / CC50: Homo sapiens, SK-OV-3, 48 h; for GI50: read-out: GI50 SKOV-3, SRB assay, 48 hours exposure; for CC50: read-out: LC50 SKOV-3, SRB assay, 48 hours exposure; for TGI SKOV-3: SRB assay, 48 hours exposure
Description: as §1, §2, §3, §4, §5

PANC-1 = experiment: Inhibition of cells growth by colorimetric (SRB) assay, PANC-1; conditions: for GI50 / CC50: Homo sapiens, PANC-1, 48 h; for GI50: read-out: GI50 PANC-1, SRB assay, 48 hours exposure; for CC50: read-out: LC50 PANC-1, SRB assay, 48 hours exposure; for TGI PANC-1: SRB assay, 48 hours exposure
Description: as §1, §2, §3, §4, §5

SK-MEL-28 = experiment: Inhibition of cells growth by colorimetric (SRB) assay, SK-MEL-28; conditions: for GI50 / CC50: Homo sapiens, SK-MEL-28, 48 h; for GI50: read-out: GI50 MEL-28, SRB assay, 48 hours exposure; for CC50: read-out: LC50 MEL-28, SRB assay, 48 hours exposure; for TGI MEL-28: SRB assay, 48 hours exposure
Description: as §1, §2, §3, §4, §5

COC(=O)C(C(=O)OC)c1nccc(-c2c3cccnc3n3c(N)nccc23)n1 [Compound 74]
GI50 (A-549): 5.35 µM
CC50 (A-549): 21.3 µM
TGI A-549 (A-549): 1.07E−05
GI50 (HT-29): 1.22 µM
CC50 (HT-29): 25.5 µM
TGI HT-29 (HT-29): 2.55E−05

CSc1nccc(-c2c3cccnc3n3c(N)nccc23)n1 [Compound 25]
GI50 (A-549): 0.649 µM
CC50 (A-549): ≥ 162 µM
TGI A-549 (A-549): 3.25E−07
GI50 (HT-29): 0.974 µM
CC50 (HT-29): ≥ 162 µM
TGI HT-29 (HT-29): 9.74E−07

Nc1nccc(-c2c3c(OCc4ccccc4)ccnc3n3c(N)nccc23)n1 [Compound 96]
GI50 (A-549): 12.3 µM
CC50 (A-549): 26.1 µM
TGI A-549 (A-549): 2.61E−05
GI50 (HT-29): 16.2 µM
CC50 (HT-29): 26.1 µM
TGI HT-29 (HT-29): 2.61E−05

CSc1nccc2c(C(C)C)c3cccnc3n12 [Compound 61]
GI50 (A-549): 24.6 µM
CC50 (A-549): ≥ 38.9 µM
TGI A-549 (A-549): 3.89E−05
GI50 (IGROV-1): 15.7 µM
CC50 (IGROV-1): ≥ 38.9 µM
TGI IGROV (IGROV-1): 3.49E−05
GI50 (LoVo-Dox): 13.7 µM
CC50 (LoVo-Dox): ≥ 38.9 µM
TGI LOVO-DOX (LoVo-Dox): 3.89E−05
GI50 (LNCaP): 8.7 µM
CC50 (LNCaP): 37.1 µM
TGI LN-caP (LNCaP): 1.80E−05
GI50 (LoVo): 23 µM
CC50 (LoVo): ≥ 38.9 µM
TGI LOVO (LoVo): 3.89E−05
GI50 (DU-145): 14.9 µM
CC50 (DU-145): ≥ 38.9 µM
TGI DU-145 (DU-145): 3.89E−05
GI50 (IGROV-ET): 7.34 µM
CC50 (IGROV-ET): ≥ 38.9 µM
TGI IGROV-ET (IGROV-ET): 2.27E−05
GI50 (K-562): 9.79 µM
CC50 (K-562): ≥ 38.9 µM
TGI K-562 (K-562): 2.44E−05
GI50 (HT-29): 28.9 µM
CC50 (HT-29): ≥ 38.9 µM
TGI HT-29 (HT-29): 3.89E−05
GI50 (SK-OV-3): 12.4 µM
CC50 (SK-OV-3): ≥ 38.9 µM
TGI SKOV-3 (SK-OV-3): 2.96E−05
GI50 (PANC-1): 11.5 µM
CC50 (PANC-1): ≥ 38.9 µM
TGI PANC-1 (PANC-1): 3.83E−05
GI50 (SK-MEL-28): 20.2 µM
CC50 (SK-MEL-28): ≥ 38.9 µM
TGI MEL-28 (SK-MEL-28): 3.89E−05

CSc1nccc(-c2c3c(Cl)ccnc3n3c(N)nccc23)n1 [Compound 107]
GI50 (A-549): 4.52 µM
CC50 (A-549): 29.2 µM
TGI A-549 (A-549): 2.70E−05
GI50 (IGROV-1): 2.95 µM
CC50 (IGROV-1): 23.7 µM
TGI IGROV (IGROV-1): 8.34E−06
GI50 (LoVo-Dox): 0.127 µM
CC50 (LoVo-Dox): 23 µM
TGI LOVO-DOX (LoVo-Dox): 5.98E−07
GI50 (LNCaP): 3.38 µM
CC50 (LNCaP): 25.3 µM
TGI LN-caP (LNCaP): 9.25E−06
GI50 (LoVo): 0.173 µM
CC50 (LoVo): 29.2 µM
TGI LOVO (LoVo): 3.79E−06
GI50 (DU-145): 0.653 µM
CC50 (DU-145): 29.2 µM
TGI DU-145 (DU-145): 1.44E−05
GI50 (IGROV-ET): 1.57 µM
CC50 (IGROV-ET): 29.2 µM
TGI IGROV-ET (IGROV-ET): 1.44E−05
GI50 (K-562): 2.18 µM
CC50 (K-562): 29.2 µM
TGI K-562 (K-562): 9.19E−06
GI50 (HT-29): 1.11 µM
CC50 (HT-29): 29.2 µM
TGI HT-29 (HT-29): 2.92E−05
GI50 (SK-OV-3): 0.195 µM
CC50 (SK-OV-3): 29.2 µM
TGI SKOV-3 (SK-OV-3): 3.35E−06
GI50 (PANC-1): 4.99 µM
CC50 (PANC-1): 29.2 µM
TGI PANC-1 (PANC-1): 2.92E−05
GI50 (SK-MEL-28): 0.0248 µM
CC50 (SK-MEL-28): 29.2 µM
TGI MEL-28 (SK-MEL-28): 5.19E−06

CSc1nccc(-c2c3cc4ccccc4nc3n3c(SC)nccc23)n1 [Compound 17a]
GI50 (A-549): ≥ 25.7 µM
CC50 (A-549): 129 µM
TGI A-549 (A-549): 7.71E−05
GI50 (HT-29): ≥ 25.7 µM
CC50 (HT-29): 129 µM
TGI HT-29 (HT-29): 7.71E−05

CSc1nccc(-c2c3c(OCc4ccccc4)ccnc3n3c(SC)nccc23)n1 [Compound 52]
GI50 (A-549): 5.81 µM
CC50 (A-549): 15.7 µM
TGI A-549 (A-549): 9.56E−06
GI50 (HT-29): 5.36 µM
CC50 (HT-29): 15.7 µM
TGI HT-29 (HT-29): 9.20E−06
